From BindingDB's records for doi:10.7270/Q2K935WV (Nmmlsc, 2008)
Structures can show the parent of a compound that is named as a salt.

What follows are compounds tested against Isoform Bcl-X(L) of Bcl-2-like protein 1 (Bcl-xL) (Homo sapiens, UniProt Q07817) (assay: Bim-Bcl-XL interaction inhibitors, potency, dose response, biochemical, multiplexed, bead flow cytometry, human Bcl-XL (AID 1322)). Details: inactive by the depositor's call; pH 7.4; 4 °C.
Isoform Bcl-X(L) of Bcl-2-like protein 1 (Bcl-xL), sequence (Q07817 whole entry G70A, canonical isoform): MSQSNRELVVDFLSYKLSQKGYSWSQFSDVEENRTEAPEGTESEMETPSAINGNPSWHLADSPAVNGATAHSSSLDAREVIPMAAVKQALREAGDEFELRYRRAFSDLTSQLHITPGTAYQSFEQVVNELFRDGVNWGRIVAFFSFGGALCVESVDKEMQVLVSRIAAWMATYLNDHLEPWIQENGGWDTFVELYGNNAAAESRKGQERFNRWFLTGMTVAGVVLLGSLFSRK
For `CCN(CC)c1ccc(-c2nn3c(-c4cccnc4)nnc3s2)cc1`, the EC50 was 7.92 µM.
`CC(=O)c1ccc(NC(=O)c2ccc3nc(-c4ccco4)c(-c4ccco4)nc3c2)cc1` [N-(4-acetylphenyl)-2,3-di-2-furyl-6-quinoxalinecarboxamide] showed an EC50 of 23.1 µM.
`COc1ccc(-n2c(=O)c3ccccc3c3ccccc3c2=O)c(OC)c1` showed an EC50 of 12.8 µM.
In the case of `Cc1ccc(OCc2cn3cccnc3n2)cc1` [MLS000723172], the EC50 is reported as 46.1 µM.
`CCOC(=O)c1ccc(Nc2nc(C(=O)OCC)nc3ccccc23)cc1` gave an EC50 of 2.97 µM.
With `Cc1ccc(C(=O)/C=C/c2ccc(-c3ccc(C)cc3)o2)cc1` [1-p-Tolyl-3-(5-p-tolyl-furan-2-yl)-propenone] the EC50 was 2.14 µM.
With `Clc1nc(NCc2cccnc2)nc(N2CCOCC2)n1` [MLS000121154] the EC50 was 18.1 µM.
`c1ccc(-c2nc(N3CCCCCC3)c3ccccc3n2)nc1` [SMR000046752] was tested, and the EC50 was 21.9 µM.
Work on `COc1cc2nc(=S)[nH]c(NCC3CCCO3)c2cc1OC` (stereo not given) [6,7-dimethoxy-4-(2-oxolanylmethylamino)-1H-quinazoline-2-thione] yielded an EC50 of 4.65 µM.
For `COCCCNc1nc(S)nc2cc(OC)c(OC)cc12` [SMR000026607], the EC50 was 3.65 µM.
With `COc1ccc(C)cc1-n1c(=O)c2ccccc2c2ccccc2c1=O` [MLS000682999] the EC50 was 18.7 µM.
`CN(N=Cc1ccncc1)C1=NS(=O)(=O)c2ccccc21` [isonicotinaldehyde (1,1-dioxido-1,2-benzisothiazol-3-yl)(methyl)hydrazone] showed an EC50 of 2.64 µM.
`O=c1nc2c(O)cccn2c2c1c(O)nc1ccccc12` [9-Hydroxy-5H-5,8,12a-triaza-benzo[c]phenanthrene-6,7-dione] was tested, and the EC50 was 13.7 µM.
For `c1ccc(Nc2cccc(Nc3ccccc3)n2)cc1` [N,N'-diphenyl-2,6-pyridinediamine], the EC50 was 6.98 µM.
`Cc1ccnc(Nc2nc(-c3c(C)nc4sccn34)cs2)c1` [[4-(6-Methyl-imidazo[2,1-b]thiazol-5-yl)-thiazol-2-yl]-(4-methyl-pyridin-2-yl)-amine] showed an EC50 of 24 µM.
`CSc1nnc2c3cc(C)ccc3n(Cc3ccccc3)c2n1` [SMR000046397] was tested, and the EC50 was 20.6 µM.
With `O=c1c2c(-c3ccccc3)csc2nc2c3ccccc3c(NCCN3CCOCC3)nn12` [SMR000352519] the EC50 was 0.41 µM.
With `O=C(CSc1ccc2nnc(-c3ccncc3)n2n1)Nc1nccs1` [SMR000320332] the EC50 was 22.2 µM.
Compound `CCOC(=O)c1c2c3c(cccc3[nH]c1=O)C(=O)c1ccccc1-2` has an EC50 of 2.12 µM.
`CN(N=C/C=C/c1ccccc1)C1=NS(=O)(=O)c2ccccc21` [(1E,2E)-3-phenylacrylaldehyde (1,1-dioxido-1,2-benzisothiazol-3-yl)(methyl)hydrazone] gave an EC50 of 2.82 µM.
`CCOCCCNc1nc(S)nc2cc(OC)c(OC)cc12` was tested, and the EC50 was 3.43 µM.
`CCOC(=O)c1nc(Nc2ccc(C(=O)OC)cc2)c2ccccc2n1` [ethyl 4-(4-methoxycarbonylanilino)quinazoline-2-carboxylate] was tested, and the EC50 was 13.5 µM.
With `NC(=O)c1sc2nc3c(c(-c4ccco4)c2c1N)CCC3` [3-amino-4-(2-furyl)-6,7-dihydro-5H-cyclopenta[b]thieno[3,2-e]pyridine-2-carboxamide] the EC50 was 3.43 µM.
For `CCOCCCn1c(N)c(C(=O)Nc2sc3c(c2C(=O)OC)CCCC3)c2nc3ccccc3nc21`, the EC50 was 1.97 µM.
`Cc1cc(OCc2cn3cccnc3n2)ccc1Cl` [2-[(4-chloranyl-3-methyl-phenoxy)methyl]imidazo[1,2-a]pyrimidine] showed an EC50 of 17.9 µM.
`Cc1ccc(-c2ccc(/C=C/C(=O)c3ccccc3)o2)cc1` showed an EC50 of 5.19 µM.
In the case of `O=C(CSc1ccc2nnc(-c3ccccn3)n2n1)Nc1nccs1` [2-[[3-(2-pyridinyl)-[1,2,4]triazolo[4,3-b]pyridazin-6-yl]thio]-N-(2-thiazolyl)acetamide], the EC50 is reported as 11.3 µM.
`O=C(N[N-][CH+]c1ccc(-c2ccccc2[N+](=O)[O-])o1)c1cncc(Br)c1` [5-bromo-N-[[5-(2-nitrophenyl)furan-2-yl]methylideneamino]pyridine-3-carboxamide] gave an EC50 of 28.3 µM.
`COc1ccc(OC)c(-n2c(=O)c3ccccc3c3ccccc3c2=O)c1` [SMR000236434] showed an EC50 of 17.6 µM.
`CCOC(=O)c1c(O)nc2ccc(Cl)c3c2c1-c1ccccc1C3=O` [MLS000704595] showed an EC50 of 5.86 µM.
Compound `COc1cc2nc(=S)n(CCCN3CCOCC3)c(N)c2cc1OC` has an EC50 of 10.9 µM.
Work on `CCCCNC(=O)c1ccc2nc(-c3ccco3)c(-c3ccco3)nc2c1` [MLS000119995] yielded an EC50 of 25.3 µM.
Compound `O=C(/C=C/c1ccccc1Cl)c1ccccc(=O)c1O` [3-[(E)-3-(2-chlorophenyl)prop-2-enoyl]-2-oxidanyl-cyclohepta-2,4,6-trien-1-one] has an EC50 of 19.3 µM.
`Cc1ccnc(SCc2cc(=O)c(OC(=O)c3ccc(Cl)c([N+](=O)[O-])c3)co2)n1` [MLS000696790] showed an EC50 of 19.6 µM.
`CCOc1ccc(C2=Nn3c(nnc3-c3ccccn3)SC2)cc1` [6-(4-ethoxyphenyl)-3-(2-pyridinyl)-7H-[1,2,4]triazolo[3,4-b][1,3,4]thiadiazine] was tested, and the EC50 was 14.3 µM.
Compound `Cc1cc2n(c1)CCn1c(C)ccc1-2` [MLS000104384] has an EC50 of 26.5 µM.
For `Cc1cccc(C(=O)/N=c2\c(C#N)cc3c(=O)n4cccc(C)c4nc3n2Cc2ccco2)c1` [N-[3-cyano-1-(furan-2-ylmethyl)-10-methyl-5-oxodipyrido[3,4-c:1',2'-f]pyrimidin-2-ylidene]-3-methylbenzamide], the EC50 was 50.4 µM.
Compound `COc1cc(/C=C2\CC/C(=C\c3cc(OC)c(O)c(OC)c3)C2=O)cc(OC)c1O` [(2E,5E)-2,5-bis[(4-hydroxy-3,5-dimethoxyphenyl)methylidene]cyclopentan-1-one] has an EC50 of 3.02 µM.
`COc1ccc(C2=Nn3c(nnc3-c3ccco3)SC2)cc1OC` [6-(3,4-Dimethoxy-phenyl)-3-furan-2-yl-7H-[1,2,4]triazolo[3,4-b][1,3,4]thiadiazine] showed an EC50 of 2.85 µM.
For `Cc1ccc(-c2ccc(/C=C3\SC(N4CCOCC4)=NC3=O)o2)cc1` [(5Z)-5-[[5-(4-methylphenyl)-2-furanyl]methylidene]-2-(4-morpholinyl)-4-thiazolone], the EC50 was 78.6 µM.
Compound `COCCNc1[nH]c(=S)nc2cc(OC)c(OC)cc12` has an EC50 of 7.43 µM.
Compound `COc1ccc(CCNC(=O)c2ccc3nc(-c4ccco4)c(-c4ccco4)nc3c2)cc1OC` [N-[2-(3,4-dimethoxyphenyl)ethyl]-2,3-di-2-furylquinoxaline-6-carboxamide] has an EC50 of 20.7 µM.
Compound `O=C1c2ccccc2-c2onc3ccc(N4CCCC4)c1c23` [SMR000279741] has an EC50 of 13.1 µM.
In the case of `O=C1/C(=C\c2ccc(-c3ccccc3Cl)o2)SC(=S)N1CC1CCCO1` (stereo not given) [(5E)-5-[[5-(2-chlorophenyl)furan-2-yl]methylidene]-3-(oxolan-2-ylmethyl)-2-sulfanylidene-1,3-thiazolidin-4-one], the EC50 is reported as 1.55 µM.
Compound `O=S1(=O)N=C(N(CCO)N=C/C=C/c2ccccc2)c2ccccc21` has an EC50 of 20 µM.
`Cc1cc(C)nc(SCc2cc(=O)c(OC(=O)c3ccc(Cl)c([N+](=O)[O-])c3)co2)n1` [4-chloro-3-nitrobenzoic acid [6-[[(4,6-dimethyl-2-pyrimidinyl)thio]methyl]-4-oxo-3-pyranyl] ester] was tested, and the EC50 was 5.09 µM.
`c1cncc(-c2nnc3n2N=C(c2cccs2)CS3)c1` [3-pyridin-3-yl-6-thiophen-2-yl-7H-[1,2,4]triazolo[3,4-b][1,3,4]thiadiazine] gave an EC50 of 7.17 µM.
Compound `Cc1cc(-c2nnc3n2N=C(c2ccc(-c4ccccc4)cc2)CS3)[nH]n1` [MLS000082991] has an EC50 of 11.7 µM.
Work on `Cc1nc2ncccn2c1-c1csc(Nc2ccccc2)n1` [4-(2-methyl-3-imidazo[1,2-a]pyrimidinyl)-N-phenyl-2-thiazolamine] yielded an EC50 of 10.1 µM.
`COc1cc2nc(=S)[nH]c(NCCc3ccc(S(N)(=O)=O)cc3)c2cc1OC` [MLS000674601] showed an EC50 of 0.51 µM.
With `C#CCn1cc(C=C2C(=O)c3ccccc3C2=O)c2ccccc21` [SMR000196125] the EC50 was 11.7 µM.
In the case of `CCN1C(=O)/C(=C/C=C2\C=CN(CC)c3ccccc32)SC1=S`, the EC50 is reported as 29.5 µM.
Work on `CN(N=Cc1cccnc1)C1=NS(=O)(=O)c2ccccc21` [SMR000207578] yielded an EC50 of 19.2 µM.

Same assay, conditions: pH 7.4; 4 °C
`Clc1nc2ccccc2cc1CN=Nc1nc2ccccc2[nH]1` [SMR000221568] was tested, and the EC50 was 49.7 µM.
With `O=C(/C=C\c1ccc(-c2ccccc2)o1)c1ccccc1` [(Z)-1-phenyl-3-(5-phenyl-2-furanyl)-2-propen-1-one] the EC50 was 9.36 µM.
With `OCCN1CCN(CCCc2c3c(cc4c2CCC4)CCC3)CC1` [MLS000698424] the EC50 was 16.1 µM.
For `CCN1/C(=C/C(C)=C/c2sc3ccccc3[n+]2CC)Sc2ccccc21` [SMR000354813], the EC50 was 26.4 µM.
Compound `Cc1nnc2ccc(-c3cccc(NC(=O)c4ccco4)c3)nn12` [SMR000324305] has an EC50 of 5.17 µM.
`CCC(/C=C1\Sc2ccc(OC)cc2N1CCO)=C\c1sc2ccc(OC)cc2[n+]1CCO` was tested, and the EC50 was 19.2 µM.
For `CCCCNc1[nH]c(=S)nc2cc(OC)c(OC)cc12` [MLS000520261], the EC50 was 3.81 µM.
In the case of `CN1CCc2cccc3c2[C@@H]1Cc1ccc(O)c(O)c1-3`, the EC50 is reported as 18.6 µM.
For `Nc1c(C(=O)NC2CC2)sc2nc3c(c(-c4ccco4)c12)CC/C3=C/c1ccco1` [SMR000259554], the EC50 was 9.01 µM.
`COc1cccc(CN=Nc2nn3cnnc3c3ccccc23)c1` [N-[1-(3-Methoxy-phenyl)-meth-(E)-ylidene]-N'-[1,2,4]triazolo[3,4-a]phthalazin-6-yl-hydrazine] was tested, and the EC50 was 2.04 µM.
Work on `CN1CCc2cccc3c2[C@H]1Cc1ccc(O)c(O)c1-3` [APOMORPHINE HYDROCHLORIDE] yielded an EC50 of 18.9 µM.
`Nc1c(C(=O)NCC2CCCO2)sc2nc3c(c(-c4ccco4)c12)CC/C3=C\c1ccco1` (stereo not given) [SMR000259502] was tested, and the EC50 was 6.11 µM.
`COc1cc(CN=Nc2nn3cnnc3c3ccccc23)ccc1O` [(4E)-2-methoxy-4-[[2-([1,2,4]triazolo[3,4-a]phthalazin-6-yl)hydrazinyl]methylidene]cyclohexa-2,5-dien-1-one] was tested, and the EC50 was 2.43 µM.
`Cc1nc2ncccn2c1-c1csc(Nc2ccc(O)cc2)n1` gave an EC50 of 0.39 µM.
`O=C1c2ccccc2-c2onc3ccc(NCCCn4ccnc4)c1c23` [SMR000044769] showed an EC50 of 1.14 µM.
For `COc1cc(C=NNC(=O)CN(Cc2ccco2)S(=O)(=O)c2ccccc2)ccc1O` [N-(2-furanylmethyl)-N-[2-[[(E)-(3-methoxy-4-oxo-1-cyclohexa-2,5-dienylidene)methyl]hydrazo]-2-oxoethyl]benzenesulfonamide], the EC50 was 18.4 µM.
`COc1cccc(CN=Nc2nn3cnnc3c3ccccc23)c1O` was tested, and the EC50 was 0.57 µM.
